Data as given in PubChem BioAssay (NCI).
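Results reflect a 48-hour exposure of cells in 96-well plates to compound at five concentrations. TGI: concentration producing complete growth inhibition.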

Assays:
Assay in all cases: DTP human tumour cell line panel, 48 h
K-562 leukemia = test system: K-562 leukemia
TK-10 renal = test system: TK-10 renal
HL-60(TB) leukemia = test system: HL-60(TB) leukemia
KM12 colon = test system: KM12 colon
MDA-MB-435 = test system: MDA-MB-435
EKVX NSCLC = test system: EKVX NSCLC
M14 melanoma = test system: M14 melanoma
HT29 colon = test system: HT29 colon
CCRF-CEM leukemia = test system: CCRF-CEM leukemia
BT-549 breast = test system: BT-549 breast
SK-MEL-2 melanoma = test system: SK-MEL-2 melanoma
HCT-116 colon = test system: HCT-116 colon
SR leukemia = test system: SR leukemia
MDA-MB-231 breast = test system: MDA-MB-231 breast
HCT-15 colon = test system: HCT-15 colon
SK-MEL-5 melanoma = test system: SK-MEL-5 melanoma
CAKI-1 renal = test system: CAKI-1 renal
PC-3 prostate = test system: PC-3 prostate
COLO 205 colon = test system: COLO 205 colon
SF-295 CNS = test system: SF-295 CNS

In the case of `CCCOP(=O)(OCCC)OC(C(F)(F)F)C(F)(F)F`, the TGI (K-562 leukemia) is reported as > 100 µM, the TGI (TK-10 renal) is reported as > 100 µM and the TGI (HL-60(TB) leukemia) is reported as > 100 µM. The TGI (KM12 colon) was > 100 µM, the TGI (MDA-MB-435) was > 100 µM and the TGI (EKVX NSCLC) was > 100 µM. For the same compound, the TGI (M14 melanoma) was > 100 µM, the TGI (HT29 colon) was > 100 µM and the TGI (CCRF-CEM leukemia) was > 100 µM. The TGI (BT-549 breast) was > 100 µM, the TGI (SK-MEL-2 melanoma) was > 100 µM and the TGI (HCT-116 colon) was > 100 µM. For the same compound, the TGI (SR leukemia) was > 100 µM, the TGI (MDA-MB-231 breast) was > 100 µM and the TGI (HCT-15 colon) was > 100 µM.
With `COc1cc2cc(C(=O)N3CC(CCl)c4ccc(N(C)C)cc43)[nH]c2c(OC)c1OC` (stereo not given) the TGI (K-562 leukemia) was > 100 µM, the TGI (TK-10 renal) was > 100 µM and the TGI (HL-60(TB) leukemia) was 0.292 µM. It also gave a TGI (SK-MEL-5 melanoma) of 0.236 µM, a TGI (KM12 colon) of 0.543 µM and a TGI (MDA-MB-435) of 0.336 µM. It also gave a TGI (EKVX NSCLC) of 0.558 µM, a TGI (M14 melanoma) of 0.237 µM and a TGI (CAKI-1 renal) of 1.28 µM. It also gave a TGI (PC-3 prostate) of 0.979 µM, a TGI (CCRF-CEM leukemia) of 0.633 µM and a TGI (BT-549 breast) of 1.33 µM. The TGI (SK-MEL-2 melanoma) was 0.128 µM, the TGI (MDA-MB-231 breast) was 0.627 µM and the TGI (COLO 205 colon) was 0.213 µM. The TGI (SF-295 CNS) was 0.726 µM and the TGI (HCT-15 colon) was > 59.9 µM.
In the case of `CN1Cc2cc(O)c(O)cc2C(O)C1` (stereo not given), the TGI (K-562 leukemia) is reported as > 100 µM, the TGI (TK-10 renal) is reported as > 100 µM and the TGI (HL-60(TB) leukemia) is reported as > 100 µM. For the same compound, the TGI (SK-MEL-5 melanoma) was > 100 µM, the TGI (KM12 colon) was > 100 µM and the TGI (MDA-MB-435) was > 100 µM. The TGI (EKVX NSCLC) was > 100 µM, the TGI (M14 melanoma) was > 100 µM and the TGI (CAKI-1 renal) was > 100 µM. For the same compound, the TGI (PC-3 prostate) was > 100 µM, the TGI (HT29 colon) was > 100 µM and the TGI (CCRF-CEM leukemia) was > 100 µM. The TGI (BT-549 breast) was > 100 µM, the TGI (SK-MEL-2 melanoma) was > 100 µM and the TGI (HCT-116 colon) was > 100 µM. For the same compound, the TGI (SR leukemia) was > 100 µM, the TGI (MDA-MB-231 breast) was > 100 µM and the TGI (COLO 205 colon) was > 100 µM. The TGI (SF-295 CNS) was > 100 µM.
With `CN(O)C(=O)CCCC(=O)NCC(C)(C)CNC(=O)CCCC(=O)N(C)O` the TGI (K-562 leukemia) was > 100 µM, the TGI (TK-10 renal) was > 100 µM and the TGI (HL-60(TB) leukemia) was > 100 µM. The TGI (SK-MEL-5 melanoma) was > 100 µM, the TGI (KM12 colon) was > 100 µM and the TGI (MDA-MB-435) was > 100 µM. For the same compound, the TGI (EKVX NSCLC) was > 100 µM, the TGI (M14 melanoma) was > 100 µM and the TGI (CAKI-1 renal) was > 100 µM. The TGI (PC-3 prostate) was > 100 µM, the TGI (HT29 colon) was > 100 µM and the TGI (CCRF-CEM leukemia) was > 100 µM. The TGI (SK-MEL-2 melanoma) was > 100 µM, the TGI (SR leukemia) was > 100 µM and the TGI (MDA-MB-231 breast) was > 100 µM. For the same compound, the TGI (COLO 205 colon) was > 100 µM, the TGI (SF-295 CNS) was > 100 µM and the TGI (HCT-15 colon) was > 100 µM.
For `CCOc1ccc(C(C)c2cc3c(cc2OC)OCO3)cc1` (stereo not given), the TGI (TK-10 renal) was > 100 µM, the TGI (SK-MEL-5 melanoma) was 1.15 µM and the TGI (M14 melanoma) was 45 µM. For the same compound, the TGI (CAKI-1 renal) was > 100 µM, the TGI (HT29 colon) was 12.4 µM and the TGI (HCT-116 colon) was 4.82 µM. The TGI (SR leukemia) was 0.442 µM and the TGI (HCT-15 colon) was > 100 µM.
`COC1=CC(=O)C=C(OC)C1=O` was tested, and the TGI (K-562 leukemia) was 18 µM, the TGI (HL-60(TB) leukemia) was 12.4 µM and the TGI (SK-MEL-5 melanoma) was 37.5 µM. The TGI (KM12 colon) was 39.3 µM, the TGI (EKVX NSCLC) was 13 µM and the TGI (CAKI-1 renal) was 96.6 µM. It also gave a TGI (HT29 colon) of 65.3 µM, a TGI (CCRF-CEM leukemia) of 4.88 µM and a TGI (SK-MEL-2 melanoma) of 17.7 µM. For the same compound, the TGI (HCT-116 colon) was 15.1 µM, the TGI (COLO 205 colon) was 40.3 µM and the TGI (SF-295 CNS) was 34.6 µM. The TGI (HCT-15 colon) was 80.9 µM.
